Values of other authors as cited in patent publication US7858592B2, “Interfering RNAs against the promoter region of P53” (The Board of Regents of the University of Texas System, priority 2007, dated 2010).
Where a name gives a salt, the structure may show the parent alone. Blank lines part the entries; values can stand above or below the compound they belong to.

What was measured:
[1] = not given; remark: listed apart in the source
[2] = not given; remark: listed apart in the source

SMILES: CC[C@]1(O)C[C@H]2CN(CCc3c([nH]c4ccccc34)[C@@](C(=O)OC)(c3cc4c(cc3OC)N(C=O)[C@H]3[C@@](O)(C(=O)OC)[C@H](OC(C)=O)[C@]5(CC)C=CCN6CC[C@]43[C@@H]65)C2)C1 [Vincristine]
toxicity for normal marrow cells and epithelial cells (in vivo): relatively low toxicity

excreted into the urine ([1]; in vivo): a few percent
SMILES: COc1cccc2c1C(=O)c1c(O)c3c(c(O)c1C2=O)C[C@@](O)(C(=O)CO)C[C@@H]3O[C@H]1C[C@H](N)[C@H](O)[C@H](C)O1 [Doxorubicin, 5,12-Naphthacenedione, (8s-cis)-10-[(3-amino-2,3,6-trideoxy-a-L-lyxo-hexopyranosyl)oxy]-7,8,9,10-tetrahydro-6,8,11-trihydroxy-8-(hydroxyacetyl)-1-methoxy-hydrochloride]

SMILES: N[C@H](Cc1ccc(N(CCCl)CCCl)cc1)C(=O)O [medphalan]
activity relative to the L-isomer (certain animal tumors): less active

SMILES: O=NN(CCCl)C(=O)NC1CCCCC1 [Lomustine, 1-(2-chloro-ethyl)-3-cyclohexyl-1 nitrosourea]
tissue levels versus plasma levels ([1]; 15 minutes after intravenous administration): comparable to plasma levels

SMILES: CC[C@@]1(O)C(=O)OCc2c1cc1n(c2=O)Cc2cc3ccccc3nc2-1 [Camptothecin]
solubility in water [2]: poor water-solubility

SMILES: O.O=P1(N(CCCl)CCCl)NCCCO1 (stereo not drawn) [Cyclophosphamide, 2H-1,3,2-Oxazaphosphorin-2-amine, N,N-bis(2-chloroethyl)tetrahydro-, 2-oxide, monohydrate]
local tolerability (oral and parental routes): does not cause local vesication, necrosis, phlebitis or even pain
